For the test, the system named is Blattella germanica. Kind of test: Test Example 9: treated filter paper with sucrose bait, Blattella germanica male imagoes. In kind it is in vivo. As to conditions: 500 ppm, 0.7 ml on filter paper, after 6 days. How it is done: The formulations of Compounds 3 and 10 as obtained in Formulation Example 5 were diluted with water, so as to have a concentration of the active ingredient of 500 ppm, to prepare a test drug solution.
A filter paper having a diameter of 5.5 cm was spread on the bottom of a polyethylene cup having the same diameter and 0.7 ml of the test drug solution was added dropwise onto the filter paper, and 30 mg of sucrose was uniformly placed as bait. Into the polyethylene cup, 2 male imagoes of Blattella germanica were released, and the cup was sealed with a lid. After 6 days, the life and death of Blattella germanica was examined, and the death rate was calculated.

SMILES strings stand for the structures.

The results in this text go back to patent publication US9156838B2, “Fused heterocyclic compound” (Sumitomo Chemical Company, Limited, priority 2012, dated 2015).

`CCS(=O)(=O)c1cc(SC(F)(F)F)ccc1-c1nc2cc(C(F)(F)C(F)(F)F)cnc2n1C` [Compound 10, 2-(2-ethylsulfonyl-4-trifluoromethylsulfanylphenyl)3-methyl-6-pentafluoroethyl-3H-imidazo[4,5-b]pyridine]: the death rate is 100%.

For the molecule `CCS(=O)(=O)c1cc([S+]([O-])C(F)(F)F)ccc1-c1nc2cc(C(F)(F)F)cnc2n1C` (centres unmarked) [Compound 3], the death rate amounted to 100%.
